Measurements published in PubChem BioAssay (NCI).
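In this assay, cells in 96-well plates receive the compound at five concentrations for 48 hours. Endpoints are linearly interpolated between the surrounding concentrations. TGI is the concentration that stops growth completely.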

Experiments:
Test in all cases: inhibition of tumour cell growth, NCI panel, 48 h
[1] = system: HCT-116 colon
[2] = system: SW-620 colon
[3] = system: UO-31 renal
[4] = system: SR leukemia
[5] = system: COLO 205 colon
[6] = system: SN12C renal
[7] = system: HCC-2998 colon
[8] = system: SF-539 CNS
[9] = system: MOLT-4 leukemia
[10] = system: SNB-75 CNS
[11] = system: MDA-MB-435
[12] = system: 786-0 renal
[13] = system: KM12 colon
[14] = system: SF-268 CNS
[15] = system: RPMI-8226 leukemia
[16] = system: HCT-15 colon
[17] = system: OVCAR-5 ovarian
[18] = system: SK-OV-3 ovarian
[19] = system: M14 melanoma
[20] = system: T-47D breast

Question: How did the TGI [1] turn out when `CC(C)(C)OC(=O)NC(Cc1ccc(O)cn1)C(=O)O` (stereo unspecified) was run?
Answer: > 100 µM

Question: What about the TGI [2] of the same compound?
Answer: > 100 µM

Question: What about the TGI [3] of the same compound?
Answer: > 100 µM

Question: What about the TGI [4] of the same compound?
Answer: > 100 µM

Question: And the TGI [5]?
Answer: > 100 µM

Question: What about the TGI [6] of the same compound?
Answer: > 100 µM

Question: What about the TGI [7] of the same compound?
Answer: > 100 µM

Question: What about the TGI [8] of the same compound?
Answer: > 100 µM

Question: What about the TGI [9] of the same compound?
Answer: > 100 µM

Question: What about the TGI [10] of the same compound?
Answer: > 100 µM

Question: And the TGI [11]?
Answer: > 100 µM

Question: And the TGI [12]?
Answer: > 100 µM

Question: And the TGI [13]?
Answer: > 100 µM

Question: And the TGI [14]?
Answer: > 100 µM

Question: And the TGI [15]?
Answer: > 100 µM

Question: And the TGI [16]?
Answer: > 100 µM

Question: And the TGI [17]?
Answer: > 100 µM

Question: For `Cc1ccc(C(c2c(O)c3ccccc3n(-c3ccccc3)c2=O)c2c(O)c3ccccc3n(-c3ccccc3)c2=O)cc1`, which TGI [1] is on record?
Answer: > 100 µM

Question: What about the TGI [2] of the same compound?
Answer: > 100 µM

Question: And the TGI [3]?
Answer: > 100 µM

Question: And the TGI [4]?
Answer: > 100 µM

Question: What about the TGI [5] of the same compound?
Answer: > 100 µM

Question: And the TGI [6]?
Answer: > 100 µM

Question: And the TGI [7]?
Answer: > 100 µM

Question: What about the TGI [8] of the same compound?
Answer: > 100 µM

Question: And the TGI [9]?
Answer: > 100 µM

Question: And the TGI [12]?
Answer: > 100 µM

Question: And the TGI [13]?
Answer: > 100 µM

Question: And the TGI [14]?
Answer: > 100 µM

Question: And the TGI [15]?
Answer: > 100 µM

Question: And the TGI [16]?
Answer: > 100 µM

Question: And the TGI [17]?
Answer: > 100 µM

Question: What does the source list for `N#CC1=C(c2ccccc2)C(=C2Nc3ccccc3N2)C2S/C(=C\c3ccccc3)C(=O)N2C1=N` (stereo unspecified)?
Answer: TGI [1]: 10.9 µM; TGI [2]: 15.8 µM; TGI [3]: 3.74 µM; TGI [4]: 4.87 µM; TGI [18]: 3.62 µM; TGI [5]: 20.5 µM; TGI [6]: 11.4 µM; TGI [7]: 13.3 µM; TGI [8]: 3.35 µM; TGI [9]: 7.79 µM; TGI [10]: 3.77 µM; TGI [12]: 6.09 µM; TGI [19]: 6.56 µM; TGI [13]: 15.1 µM; TGI [14]: 6.35 µM; TGI [16]: 10.3 µM; TGI [17]: 5.84 µM

Question: Which results are given for `CCSc1cc2c(cc1O)CC[C@@H]1[C@@H]2CC[C@]2(C)[C@@H](O)CC[C@@H]12`?
Answer: TGI [1]: 32.7 µM; TGI [2]: 13.2 µM; TGI [3]: 30.1 µM; TGI [18]: 39.2 µM; TGI [5]: 32.3 µM; TGI [6]: 35.1 µM; TGI [7]: 27.5 µM; TGI [8]: 34.3 µM; TGI [9]: 21.2 µM; TGI [10]: 29.6 µM; TGI [11]: 10.4 µM; TGI [12]: 24.5 µM; TGI [13]: 21.9 µM; TGI [14]: 55 µM; TGI [15]: > 100 µM; TGI [16]: 23.2 µM; TGI [17]: 51.2 µM

Question: Which results are given for `COC(=O)C1=COC(OC2OC(CO)C(O)C(O)C2O)C2C3CN4CCc5c([nH]c6ccccc56)C4(CC12)O3` (stereo unspecified)?
Answer: TGI [1]: > 100 µM; TGI [2]: > 100 µM; TGI [3]: > 100 µM; TGI [20]: > 100 µM; TGI [4]: > 100 µM; TGI [18]: > 100 µM; TGI [5]: > 100 µM; TGI [6]: > 100 µM; TGI [8]: > 100 µM; TGI [9]: > 100 µM; TGI [10]: > 100 µM; TGI [12]: > 100 µM; TGI [19]: > 100 µM; TGI [13]: > 100 µM; TGI [14]: 91.1 µM; TGI [15]: > 100 µM; TGI [16]: > 100 µM; TGI [17]: > 100 µM

Question: With `O=C1CC2(CCC3=C(O2)c2ccccc2NC(=O)C3)C(=O)c2ccccc2N1` (stereo unspecified) as the compound, how does the TGI [1] read?
Answer: > 100 µM

Question: And the TGI [2]?
Answer: > 100 µM

Question: What about the TGI [3] of the same compound?
Answer: > 100 µM

Question: And the TGI [5]?
Answer: > 100 µM

Question: And the TGI [6]?
Answer: > 100 µM

Question: What about the TGI [8] of the same compound?
Answer: > 100 µM

Question: And the TGI [9]?
Answer: > 100 µM

Question: And the TGI [10]?
Answer: > 100 µM

Question: And the TGI [12]?
Answer: > 100 µM

Question: And the TGI [19]?
Answer: > 100 µM

Question: What about the TGI [13] of the same compound?
Answer: > 100 µM

Question: And the TGI [14]?
Answer: > 100 µM

Question: And the TGI [15]?
Answer: > 100 µM

Question: What about the TGI [16] of the same compound?
Answer: > 100 µM

Question: What about the TGI [17] of the same compound?
Answer: > 100 µM

Question: `N#Cc1ccc(N2CCOCC2)cc1` was tested. Which TGI [1] did it give?
Answer: > 100 µM

Question: And the TGI [2]?
Answer: > 100 µM

Question: And the TGI [3]?
Answer: > 100 µM

Question: And the TGI [20]?
Answer: > 100 µM

Question: And the TGI [18]?
Answer: > 100 µM

Question: And the TGI [5]?
Answer: > 100 µM

Question: What about the TGI [6] of the same compound?
Answer: > 100 µM

Question: What about the TGI [8] of the same compound?
Answer: > 100 µM

Question: What about the TGI [9] of the same compound?
Answer: > 100 µM

Question: And the TGI [10]?
Answer: > 100 µM

Question: What about the TGI [11] of the same compound?
Answer: > 100 µM

Question: And the TGI [12]?
Answer: > 100 µM

Question: What about the TGI [19] of the same compound?
Answer: > 100 µM

Question: And the TGI [13]?
Answer: > 100 µM

Question: And the TGI [14]?
Answer: > 100 µM

Question: And the TGI [16]?
Answer: > 100 µM

Question: What about the TGI [17] of the same compound?
Answer: > 100 µM
